Measurements: PMC5988308, “Rhodanine derivatives as potent anti-HIV and anti-HSV microbicides” (PLoS ONE, 2018)
Read-outs that look alike come from different tables or passages of the source.

Experiments:
[1] = system: HIV-1 NL4.3 (CXCR4-tropic strain); assay: Antiviral activity on TZM-bl cells infected with HIV-1 NL4.3 (CPRG assay); format: cell-based
Procedure: After 48 h of incubation, the medium was removed and viral infection was quantified using a β-galactosidase (CPRG) assay (Roche). Twenty thousand TZM-bl cells/well were seeded in 96-well plates in complete DMEM supplemented with 30 μg/mL DEAE-dextran (Sigma-Aldrich). […] Vehicle (0.1% dimethyl sulfoxide [DMSO])-treated cells served as a negative control. […] After 2 days, viral infection was quantified using a CPRG assay (Roche). […] To evaluate the cell toxicity of the compounds, the metabolic XTT [2,3-bis-(2-methoxy-4-nitro-5-sulfophenyl)-2H-tetrazolium-5-carboxanilide] test (Sigma-Aldrich) was performed according to the manufacturer’s instructions.

[2] = Cytotoxicity on TZM-bl cells (XTT test); format: cell-based; details: human, read-out: Citotoxicity (TZM-bl cells) CC50
Procedure: (§1) The human TZM-bl indicator cell line (obtained from the NIH AIDS reagents program, cat. Nr 8129 (www.aidsreagent.org) and maintained at 37°C and 5% CO2 in Dulbecco’s modified Eagle’s medium (DMEM) medium containing 10% fetal bovine serum, 50 μg/mL penicillin, and 50 μg/mL streptomycin. The HIV-1 laboratory strains NL(AD8) (NIH AIDS reagents program, cat.nr 11346), NL4.3 (NIH AIDS reagents program, cat. Nr. 114) were titrated as previously reported. Briefly, serial 5-fold dilutions of each virus were made in quadruplicate wells in 96-well culture plates, in a total volume of 100 μL of growth medium (DMEM), for a total of 8 dilution steps. Freshly trypsinized cells (20,000 cells in 100 μL of growth medium containing 75 μg/mL DEAE-dextran) were added to each well, and the plates were incubated at 37°C in a humidified 5% CO2-95% air environment. After 48 h of incubation, the medium was removed and viral infection was quantified using a β-galactosidase (CPRG) assay (Roche). Twenty thousand TZM-bl cells/well were seeded in 96-well plates in complete DMEM supplemented with 30 μg/mL DEAE-dextran (Sigma-Aldrich). Three hundred times the 50% tissue culture infective dose (TCID50)/mL of each strain was pretreated for 1 h at 37°C with six serial dilutions ([…] to 3.2 nM) of each compound and then added to the cells, as previously described. Vehicle (0.1% dimethyl sulfoxide [DMSO])-treated cells served as a negative control. […] After 2 days, viral infection was quantified using a CPRG assay (Roche). The inhibitory curves were fitted by nonlinear regression, allowing for the calculation of the 50% inhibitory concentration (IC50) using the Prism software. To evaluate the cell toxicity of the compounds, the metabolic XTT [2,3-bis-(2-methoxy-4-nitro-5-sulfophenyl)-2H-tetrazolium-5-carboxanilide] test (Sigma-Aldrich) was performed according to the manufacturer’s instructions.

[3] = system: HIV-1 AD8 (CCR5-tropic strain); assay: Antiviral activity on TZM-bl cells infected with HIV-1 AD8 (CPRG assay); format: cell-based; details: for alteration of antiviral activity when pre-incubated with serum: HIV-1 laboratory strains
Procedure: as §1

[4] = system: HIV-1 NL 4.3 WT; assay: Antiviral activity on human CD4+ T lymphocytes, NL4.3 WT; format: cell-based; details: Human immunodeficiency virus 1, read-out: NL 4.3 WT EC50
Procedure: (§2) The antiviral activity and cytotoxicity of compounds 2, 9e and 9f was tested also on freshly purified human CD4^+ T lymphocytes obtained from healthy blood donors (informed consent available) as described previously on HIV laboratory strain NL4.3 and AD8 [33, 34].

[5] = system: recombinant HIV-1 integrase Q148H, G140S; assay: Antiviral activity on human CD4+ T lymphocytes, integrase mutant Q148H, G140S; format: cell-based; details: Human immunodeficiency virus 1, read-out: Q148H, G140S EC50
[6] = system: recombinant HIV-1 integrase Y143R; assay: Antiviral activity on human CD4+ T lymphocytes, integrase mutant Y143R; format: cell-based; details: Human immunodeficiency virus 1, read-out: Y143R EC50
[7] = system: HIV-1 AD8 WT; assay: Antiviral activity on human CD4+ T lymphocytes, AD8 WT; format: cell-based; details: Human immunodeficiency virus 1, read-out: AD8 WT EC50
Procedure: as §2

[8] = system: HIV-1 AD8; assay: Inhibition of antiviral activity by fetal bovine serum (TZM-bl, AD8); format: cell-based; details: FBS 0% to 10%
Procedure: To evaluate the binding of compounds to plasma proteins also in a cell based assay, the infection with the HIV laboratory strain AD8 was performed in absence or in presence of different concentrations of Fetal Bovine Serum (FBS): 2%, 5% and 10%. The representative compound 2 was pre-incubated at different concentrations ranging from 10 μM to 3.2 nM with 300 TCID50 /mL of AD8 in DMEM supplemented with 50 μg/mL penicillin, 50 μg/mL streptomycin, 30 μg/mL DEAE-dextran and FBS at the concentration described above. Maraviroc was used as control. After an hour the mixture was added to 40.000 TZM-bl cells/well plated in a 96-well plate and after two days the infection was quantified using a CPRG assay (Roche) as previously described.

[9] = system: HIV-1 AD8; assay: Inhibition of antiviral activity by purified bovine serum albumin (TZM-bl, AD8); format: cell-based
Procedure: To confirm the binding of compound 2 to serum albumin, infection was performed in presence of different concentrations of purified bovine serum albumin (BSA, Sigma Aldrich) starting from the concentration that is usually present in FBS serum (35 mg/mL, 1X) and increasing to a five-fold concentration (175 mg/mL) up to a ten-fold concentration (350 mg/mL). […] After one hour, the mixture was added to 40.000 TZM-bl cells/well plated in DMEM supplemented with 50 μg/mL penicillin, 50 μg/mL streptomycin, 30 μg/mL DEAE-dextran and 10% FBS in a 96-well plate. After two days the infection was evaluated through a CPRG assay.

[10] = Vero cell viability (MTS assay); format: cell-based; details: African green monkey
Procedure: African green monkey fibroblastoid kidney cells (Vero, ATCC CCL-81) were grown as monolayers in Eagle's minimal essential medium (MEM) (Gibco/BRL, Gaithersburg, MD) supplemented with 10% heat inactivated fetal calf serum (FCS) and 1% antibiotic-antimycotic solution (Zell Shield, Minerva Biolabs GmbH, Berlin, Germany).
Cell viability was measured using the MTS [3-(4,5-dimethylthiazol-2-yl)-5-(3-carboxymethoxyphenyl)-2-(4-sulfophenyl)-2H-tetrazolium] assay. Cell cultures were seeded in 96-well plates were incubated with different concentrations of compounds in triplicate under the same experimental conditions described for the antiviral assays. Cell viability was determined using the CellTiter 96 Proliferation Assay Kit (Promega, Madison, WI, USA) according to the manufacturer's instructions. Absorbances were measured using a Microplate Reader (Model 680, BIORAD) at 490 nm. The effect on cell viability at different concentrations of the compound was expressed as a percentage, by comparing absorbances of treated cells with those of cells incubated with culture medium and equal volumes of vehicle.

[11] = system: HSV-2 acyclovir resistant; assay: HSV-2 acyclovir resistant plaque reduction assay on Vero cells; format: cell-based; details: Human alphaherpesvirus 2, Vero, read-out: HSV-2 acyclovir resistant EC50
Procedure: (§3) Clinical isolates of HSV-1 and HSV-2 were kindly provided by Prof. M. Pistello, University of Pisa, Italy. HSV-1 and HSV-2 strains were propagated and titrated by plaque assay on Vero cells. A HSV-2 strain with phenotypic resistance to acyclovir was generated by serial passage in the presence of increasing concentrations of acyclovir, as previously described.
The effect of the rhodanine derivatives on HSV infection was evaluated by plaque reduction assay. Vero cells were pre-plated 24 h in advance in 24-well plates at a density of […]. Increasing concentrations of compounds were mixed with HSV-2 (MOI 0.001 pfu/cell) or HSV-2 acyclovir resistant (MOI 0.001) or HSV-1 (MOI 0.0005) or and incubated for 1 hour at 37°C. The mixtures were subsequently added to the cells, which were then incubated at 37°C for 2 h. […] After further incubation at 37°C for 24 h (HSV-2 and HSV-2 R Acy) or 48 h (HSV-1), cells were fixed and stained with 0.1% crystal violet in 20% ethanol and viral plaques counted. […] The selectivity index (SI) was calculated by dividing the CC50 by the EC50 value.
All results are presented as the mean values from three independent experiments. The EC50 values for inhibition curves were calculated by regression analysis using the software GraphPad Prism (GraphPad Software, San Diego, California, U.S.A.) by fitting a variable slope-sigmoidal dose–response curve. […]

[12] = system: HSV-2; assay: HSV-2 plaque reduction assay on Vero cells; format: cell-based; details: Vero cells
Procedure: as §3
(§4) The effect of the rhodanine derivatives on HSV infection was evaluated by plaque reduction assay. Vero cells were pre-plated 24 h in advance in 24-well plates at a density of […]. Increasing concentrations of compounds were mixed with HSV-2 (MOI 0.001 pfu/cell) or HSV-2 acyclovir resistant (MOI 0.001) or HSV-1 (MOI 0.0005) or and incubated for 1 hour at 37°C. The mixtures were subsequently added to the cells, which were then incubated at 37°C for 2 h. The virus inoculum was then removed and the cells washed and overlaid with a medium containing 1.2% methylcellulose (Sigma). After further incubation at 37°C for 24 h (HSV-2 and HSV-2 R Acy) or 48 h (HSV-1), cells were fixed and stained with 0.1% crystal violet in 20% ethanol and viral plaques counted. The effective concentration producing 50% reduction (EC50) and 90% reduction (EC90) in plaque formation was determined using Prism software by comparing drug-treated with wells treated with medium and solvent. The selectivity index (SI) was calculated by dividing the CC50 by the EC50 value.
(§5) All results are presented as the mean values from three independent experiments. The EC50 values for inhibition curves were calculated by regression analysis using the software GraphPad Prism (GraphPad Software, San Diego, California, U.S.A.) by fitting a variable slope-sigmoidal dose–response curve. Acyclovir was purchased from Sigma Aldrich (Milan, Italy).

[13] = system: HSV-1; assay: HSV-1 plaque reduction assay on Vero cells; format: cell-based; details: Human alphaherpesvirus 1, Vero cells, read-out: HSV-1 EC50
Procedure: as §3, §4, §5

[14] = system: NL4.3 HIV strain; assay: Antiviral activity in microbicide gel formulation, transwell experiment, TZM-bl cells; format: cell-based, HIV-1; details: Human immunodeficiency virus 1, gel at 50%
Procedure: All the semi-solid formulations were prepared adding at the pre-gel solution reported above hydroxyethyl cellulose (HEC) (1.8% w/v). In all samples, 0.2% v/v propionic acid was added to aqueous solution in order to preserve form bacteria and mold contamination. HEC was dispersed in the pre-gel solution at 25°C under magnetic stirring, overnight.
Antiviral activity of compound 2 on NL4.3 HIV strain was evaluated also in a gel formulation. To reproduce more physiological conditions, TZM-bl cells were seeded into transwells and the gel was applied onto the cell monolayer at 50% fixed concentration with serial drug dilutions as previously described. Briefly, 4x10^4 TZM-bl cells were plated into each transwell apical chamber of a 24-well plate (pore size 3μm and diameter 6,5 mm, Corning) containing medium in the bottom plate and cultured overnight. For efficacy testing, 60 TCID50 of virus was added to each apical well in the presence of 100 μL of compound 2 gel, tenofovir gel or blank gel at the final drug concentrations of 25μM, 10 μM and 5 μM. Inhibition of infection was determined as previously based on deviations from blank gel.

[15] = system: HSA; details: cited from earlier work

**Q.** With `Cc1nnc(C(=O)NC(C)(C)c2nc(C(=O)NCc3ccc(F)cc3)c(O)c(=O)n2C)o1` [RAL, raltegravir, reference compound] as the molecule, how does the EC50 ([1]; Human immunodeficiency virus 1, NL43, TZM-bl, read-out: NL4-3 EC50) read?
**A.** 0.021 ± 0.003 µM

**Q.** And the CC50 [2]?
**A.** > 20 µM

**Q.** And the EC50 ([3]; Human immunodeficiency virus 1, TZM-bl, read-out: AD8 EC50)?
**A.** 0.0065 ± 0.001 µM

**Q.** And the EC50 ([3]; Human immunodeficiency virus 1, TZM-bl, read-out: AD8 EC50 a)?
**A.** 0.0135 ± 0.002 µM

**Q.** What about the “alteration of antiviral activity when pre-incubated with serum” value ([3]; TZM-bl cells) of the same molecule?
**A.** did not show any alteration of antiviral activity

**Q.** And the EC50 [4]?
**A.** 0.003 ± 0.002 µM

**Q.** And the EC50 [5]?
**A.** 0.8 ± 0.012 µM

**Q.** What about the EC50 [6] of the same molecule?
**A.** 0.46 ± 0.01 µM

**Q.** What about the EC50 [7] of the same molecule?
**A.** 0.002 ± 0.003 µM

**Q.** Which EC50 ([1]; TZM-bl cells, pre-incubation in complete medium containing fetal bovine serum (FBS), read-out: NL4-3 EC50 a) does the source give for maraviroc [reference compound] here?
**A.** > 20 µM

**Q.** What about the EC50 ([1]; TZM-bl cells, pre-incubation with virus without serum, read-out: NL4-3 EC50) of the same molecule?
**A.** > 20 µM

**Q.** What about the “effect of FBS concentration on antiviral activity” value [8] of the same molecule?
**A.** did not change

**Q.** What about the “alteration of antiviral activity when pre-incubated with serum” value ([3]; TZM-bl cells) of the same molecule?
**A.** did not show any alteration of antiviral activity

**Q.** And the EC50 ([3]; TZM-bl cells, pre-incubation in complete medium containing fetal bovine serum (FBS), read-out: AD8 EC50 a)?
**A.** 0.0255 ± 0.003 µM

**Q.** What about the EC50 ([3]; TZM-bl cells, pre-incubation with virus without serum, read-out: AD8 EC50) of the same molecule?
**A.** 0.0367 ± 0.007 µM

**Q.** What about the “influence of BSA on antiviral activity, any concentration of BSA” value [9] of the same molecule?
**A.** not influenced

**Q.** Which CC50 ([10]; Citotoxicity (Vero cells) CC50) does the source give for `Nc1nc2c(ncn2COCCO)c(=O)[nH]1` [ACV, Acyclovir, reference compound] here?
**A.** 732 ± 46.2 µM

**Q.** And the CC50 ([10]; Vero cell CC50 (HSV-1))?
**A.** 698 ± 72.5 µM

**Q.** And the CC50 ([10]; Vero cell CC50 (HSV-2 acyclovir resistant rows))?
**A.** 732 ± 46.2 µM

**Q.** And the EC50 [11]?
**A.** 31.9 ± 1.16 µM

**Q.** And the EC50 ([12]; Human alphaherpesvirus 2, plaque reduction, compound pre-incubated with virus 1 h at 37°C, read-out: HSV-2 EC50)?
**A.** 0.622 ± 0.0211 µM

**Q.** What about the “SI (CC50/EC50), HSV-2” value [12] of the same molecule?
**A.** 1177

**Q.** And the EC50 [13]?
**A.** 0.168 ± 0.0413 µM

**Q.** Which EC50 [14] does the source give for `C[C@H](Cn1cnc2c(N)ncnc21)OCP(=O)(O)O` [tenofovir, reference compound] here?
**A.** 4.5 µM

**Q.** Which Kd [15] does the source give for `CC(=O)Nc1ccc(O)cc1` [Paracetamol] here?
**A.** 1280 ± 690 µM
